The results in this text go back to patent US20080090756A1, “Somatostatin agonists” (The Administrators of the Tulane Educational Fund, priority 2001, published 2008).

One may read the Kd as the free concentration of one partner at which half of the binding sites on the other are occupied at equilibrium, for simple one-to-one binding. As a reminder, the IC50 is the concentration that gives 50% inhibition.

For one experiment, the target named is T1, hSSTR-1 (Homo sapiens, UniProt P30872).
T1 construct: each containing the entire coding region of the full-length receptors; expressed in transfected cells
As to the kind of experiment: Radioligand binding assay, cloned human somatostatin receptor type 1. The conditions noted are these: CHO-K1 cell membranes, displacement of [125I]Tyr11-SRIF; mean ± SEM, single values = one experiment; read-out: Kd ± SEM hsst1. The text has this:
(§1) Functional Expression of the Cloned Human Somatostatin Receptors. The genomic clones containing the human somatostatin receptors (hSSTR-1 to hSSTR-5) (Yamada, Y., et al. al., Proc. Natl. Acad. Sci. USA. 1992, 89, 251-255; Yasuda, K., et al., J. Biol. Chem. 1992, 267, 20422-20428; Yamada, Y., et al., Mol. Pharmacol. 1992, 42, 2136-2142; Rohrer, L., et al., Proc. Natl. Acad. Sci. USA. 1993, 90, 4196-4200.) were kindly provided by Dr. Graeme I. Bell of the University of Chicago. The hSSTR-1, hSSTR-2, hSSTR-3, hSSTR-4 and hSSTR-5 cDNAs were isolated as a 1.5-kb PstI-XmnI fragment, 1.7-kb BamHI-HindIII fragment, 2.0-kb NcoI-HindIII fragment, 1.4-kb NheI-NdeI fragment, and a 1.2-kb HindIII-XbaI fragment, respectively, each containing the entire coding region of the full-length receptors. These fragments were independently subcloned into the corresponding restriction endonuclease sites in the mammalian expression vector pCMV5, downstream from the human cytomegalovirus (CMV) promoter, to produce the expression plasmids pCMV5/hSSTR-1, pCMV5/hSSTR-2, pCMV5/hSSTR-3, pCMV5/hSSTR-4 and pCMV5/hSSTR-5. For transfection into CHO-K1 cells, a plasmid, pRSV-neo (American Type Culture Collection, Rockville, Md.), carrying the neomycin mammalian cell selectable marker was added.
(§2) Receptor Expression and Transfection. Transfections were performed by the calcium phosphate method. CHO-K1 cells were maintained in α-minimum essential medium (α-MEM; Gibco) supplemented with 10% fetal calf serum and transfected with each of the expression plasmids using calcium phosphate precipitation. Clones that had inherited the expression plasmid were selected in α-MEM supplemented with 500 μg mL^−1 of geneticin (G418; Gibco). Independent CHO-K1 clones were picked by glass-ring cloning and expanded in culture in the selective media. Membranes were prepared from the isolated clones and hSSTR expression was initially assessed for binding with [^125I]Tyr^11-SRIF and [^125I]MK-678 (for SSTR-2).
(§3) Radioligand Binding Assays. Cell membranes of the 5 cells types were obtained from homogenates (Polytron setting 6, 15 sec) of the corresponding CHO-K1 cells, in ice-cold Tris-HCl (50 mM) and centrifuged (39000 g, 10 min×2), with an intermediate resuspension in fresh buffer. The final pellets were resuspended in Tris-HCl (10 mM) for assay. Aliquots of the membranes were incubated (30 min at 37° C.) with 0.05 nM [^125I]Tyr^11-SRIF (types 1, 3, 4, 5) or [^125I]MK-678 (type 2) in […] (pH 7.4) containing BSA (10 mg mL^−1); MgCl2 (5 mM), Trasylol (200 kIU mL^−1), bacitracin (0.02 mg mL^−1), and phenylmethanesulfonyl fluoride (0.02 mg mL^−1). The final assay volume was 0.3 mL and incubations were terminated by rapid filtration through GF/C filters pre-soaked in 0.3% poly(ethylenimine) using a Brandel rapid filtration module. Each tube and filter was then washed with aliquots of cold buffer (3×5 mL).
(§4) Specific binding is defined as the total radioligand bound minus that bound in the presence of 1.0 μM SRIF. The following total radioligand binding and non-specific binding (nsb) values were typically obtained with these assay systems: hSSTR-1, 7000 cpm total versus 3500 cpm nsb; hSSTR-2, 9000 cpm total versus 1000 cpm nsb; hSSTR-3, 8000 cpm total versus 1000 cpm nsb; hSSTR-4, 6000 cpm total versus 3500 cpm nsb; and hSSTR-5, 7500 cpm total versus 3500 cpm nsb. The binding affinities are expressed as Ki values ±SEM (nM) for each of the five receptor subtypes. Ki values derived for representative compounds of the instant invention are detailed in Table 2.
(§5) The binding affinities (Kd, nM) of all SRIF analogues were determined using their concentration-dependent displacement of ^125I-radiolabeled peptide ligands from membranes isolated from CHO cells transfected with the corresponding human somatostatin receptor.
In general terms: Loss of bound radioactivity is the signal in a displacement assay; it reports binding, not function.

Another experiment concerns the target T2, hSSTR-2 (Homo sapiens, UniProt P30874).
T2 construct: each containing the entire coding region of the full-length receptors; expressed in transfected cells
As to the kind of experiment: Radioligand binding assay, cloned human somatostatin receptor type 2. The conditions noted are these: CHO-K1 cell membranes, displacement of [125I]MK-678; mean ± SEM, single values = one experiment; read-out: Kd ± SEM hsst2.
From the text: as §1, §2, §3, §4, §5

In the next experiment the target is T3, hSSTR-3 (Homo sapiens, UniProt P32745).
T3 construct: each containing the entire coding region of the full-length receptors; expressed in transfected cells
As to the kind of experiment: Radioligand binding assay, cloned human somatostatin receptor type 3. Conditions: CHO-K1 cell membranes, displacement of [125I]Tyr11-SRIF; mean ± SEM, single values = one experiment; read-out: Kd ± SEM hsst3.
From the text: as §1, §2, §3, §4, §5

The target in the next experiment is T4, hSSTR-4 (Homo sapiens, UniProt P31391).
T4 construct: each containing the entire coding region of the full-length receptors; expressed in transfected cells
As to the kind of experiment: Radioligand binding assay, cloned human somatostatin receptor type 4. Conditions: CHO-K1 cell membranes, displacement of [125I]Tyr11-SRIF; mean ± SEM, single values = one experiment; read-out: Kd ± SEM hsst4.
From the text: as §1, §2, §3, §4, §5

A further experiment concerns the target T5, hSSTR-5 (Homo sapiens, UniProt P35346).
T5 construct: each containing the entire coding region of the full-length receptors; expressed in transfected cells
As to the kind of experiment: Radioligand binding assay, cloned human somatostatin receptor type 5. The conditions noted are these: CHO-K1 cell membranes, displacement of [125I]Tyr11-SRIF; mean ± SEM, single values = one experiment; read-out: Kd ± SEM hsst5.
From the text: as §1, §2, §3, §4, §5

Experiment [1] relates to Culture Rat Pituitary Cells. Format: cell-based. Conditions: inhibition of GH release, dispersed rat anterior pituitary cells, GHRH(1-29)NH2 1 nM, 3 h at 37° C.; mean ± SEM of (n) dose response curves; read-out: Agonist IC50 ± SEM (n). Here is the method: SRIF Analogue Inhibition of GH Release. Anterior pituitaries from adult male rats were collected and dispersed by a previously described trypsin/DNase method. […] The cells were randomly plated at a density of approximately 200,000 cells/well (Costar cluster 24; Rochester Scientific Co., Rochester, N.Y.). […] In preparation for a hormone challenge, the cells were washed with medium 199 (Gibco, 3×1 mL). Each dose of a compound of this invention was tested in triplicate wells in a total volume of 1 mL medium 199 containing 1% BSA (fraction V; Sigma Chemical Co.). All wells contained GHRH(1-29)NH2 (1 nM). After incubation in an air/carbon dioxide atmosphere (95/5%, 3 h at 37° C.), the medium was removed and stored at −20° C. until assayed for hormone content. Growth hormone in media was measured by a standard double antibody RIA using components generously supplied by Dr. A. F. Parlow at the National Hormone and Pituitary Program (NHHP) Torrance, Calif. Agonist IC50's were calculated using Sigmaplot (Jandel Scientific, San Rafael, Calif.). Values are expressed as the mean IC50 (nM)±SEM from (n) separate dose-response curves.

Bridge positions count the residues as written; N and C are the ends. Square brackets hold non-standard residues; d marks the D form. Peptide text beside a SMILES is read from it. NMeT = CN[C@H](C(=O)O)[C@@H](C)O Where only a bound is given, the exact number is not on record here.

T5 sequence (P35346 whole entry): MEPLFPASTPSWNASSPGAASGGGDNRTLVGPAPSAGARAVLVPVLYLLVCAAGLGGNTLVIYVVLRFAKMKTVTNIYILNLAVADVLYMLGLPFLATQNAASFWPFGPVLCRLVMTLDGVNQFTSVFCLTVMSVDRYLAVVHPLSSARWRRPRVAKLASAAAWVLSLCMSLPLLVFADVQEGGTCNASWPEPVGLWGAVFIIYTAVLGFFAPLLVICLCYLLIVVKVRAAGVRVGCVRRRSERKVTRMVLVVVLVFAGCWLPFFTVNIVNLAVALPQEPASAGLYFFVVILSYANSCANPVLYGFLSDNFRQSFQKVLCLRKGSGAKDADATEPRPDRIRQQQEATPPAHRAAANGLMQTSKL
T2 sequence (P30874 whole entry): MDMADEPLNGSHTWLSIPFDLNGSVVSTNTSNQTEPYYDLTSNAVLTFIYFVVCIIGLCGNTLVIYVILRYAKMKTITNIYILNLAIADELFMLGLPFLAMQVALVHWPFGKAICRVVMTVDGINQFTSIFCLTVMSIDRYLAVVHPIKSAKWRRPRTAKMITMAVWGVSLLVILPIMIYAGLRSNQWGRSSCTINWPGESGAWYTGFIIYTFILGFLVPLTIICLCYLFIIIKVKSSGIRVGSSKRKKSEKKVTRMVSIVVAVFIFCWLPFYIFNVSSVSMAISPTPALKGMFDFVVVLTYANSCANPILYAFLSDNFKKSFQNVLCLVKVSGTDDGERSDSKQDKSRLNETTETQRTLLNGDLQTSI
T3 sequence (P32745 whole entry): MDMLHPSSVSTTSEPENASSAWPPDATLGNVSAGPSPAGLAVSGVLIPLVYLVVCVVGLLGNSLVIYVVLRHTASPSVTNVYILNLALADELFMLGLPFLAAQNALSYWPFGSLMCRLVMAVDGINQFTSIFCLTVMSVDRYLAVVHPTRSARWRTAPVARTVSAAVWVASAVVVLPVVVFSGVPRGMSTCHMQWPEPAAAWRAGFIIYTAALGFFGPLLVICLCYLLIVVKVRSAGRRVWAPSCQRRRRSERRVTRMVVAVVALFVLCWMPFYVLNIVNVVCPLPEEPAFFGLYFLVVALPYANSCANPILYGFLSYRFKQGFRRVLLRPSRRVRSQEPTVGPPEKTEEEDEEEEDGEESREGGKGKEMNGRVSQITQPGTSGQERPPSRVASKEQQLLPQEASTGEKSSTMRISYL
T1 sequence (P30872 whole entry): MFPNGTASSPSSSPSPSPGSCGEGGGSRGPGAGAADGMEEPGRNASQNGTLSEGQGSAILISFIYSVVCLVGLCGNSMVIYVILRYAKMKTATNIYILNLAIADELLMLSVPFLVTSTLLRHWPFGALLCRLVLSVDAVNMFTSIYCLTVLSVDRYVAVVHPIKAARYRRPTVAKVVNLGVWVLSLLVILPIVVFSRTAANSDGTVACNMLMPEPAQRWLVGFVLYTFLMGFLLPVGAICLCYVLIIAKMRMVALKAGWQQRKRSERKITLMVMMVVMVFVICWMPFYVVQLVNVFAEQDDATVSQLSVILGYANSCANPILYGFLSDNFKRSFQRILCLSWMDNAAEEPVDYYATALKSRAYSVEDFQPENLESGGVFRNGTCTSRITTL
T4 sequence (P31391 whole entry): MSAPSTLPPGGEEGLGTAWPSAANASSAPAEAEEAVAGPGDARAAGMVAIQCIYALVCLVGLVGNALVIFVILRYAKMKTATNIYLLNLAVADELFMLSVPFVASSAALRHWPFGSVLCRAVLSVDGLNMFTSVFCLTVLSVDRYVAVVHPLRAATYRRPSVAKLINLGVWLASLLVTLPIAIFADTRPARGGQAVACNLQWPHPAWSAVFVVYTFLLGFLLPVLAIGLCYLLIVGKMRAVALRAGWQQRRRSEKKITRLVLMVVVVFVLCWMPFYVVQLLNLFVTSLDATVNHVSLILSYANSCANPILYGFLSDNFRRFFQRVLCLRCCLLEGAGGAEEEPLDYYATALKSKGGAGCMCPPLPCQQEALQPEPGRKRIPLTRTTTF

On to `C[C@@H](O)[C@H](NC(=O)[C@@H]1CSSC[C@H](N(C)C(=O)[C@H](N)Cc2ccccc2)C(=O)N[C@@H](Cc2ccccc2)C(=O)N[C@H](Cc2c[nH]c3ccccc23)C(=O)N[C@@H](CCCCN)C(=O)N[C@@H]([C@@H](C)O)C(=O)N1)C(N)=O` [Example 2, DPhe-cyclo(NMeCys-Phe-DTrp-Lys-Thr-Cys)-Thr-NH2], for which the Kd at hSSTR-1 is 378 ± 119 nM; on hSSTR-2, 1.04 ± 0.18 nM; at hSSTR-3 it was 13 ± 0.5 nM; on hSSTR-4, above 1000 nM; on hSSTR-5, 23.7 nM.

Regarding `C[C@H](N)C(=O)NCC(=O)N[C@H]1CSSC[C@@H](C(=O)O)NC(=O)[C@H](CO)NC(=O)[C@H]([C@@H](C)O)NC(=O)[C@H](Cc2ccccc2)NC(=O)[C@H]([C@@H](C)O)NC(=O)[C@H](CCCCN)NC(=O)[C@H](Cc2c[nH]c3ccccc23)NC(=O)[C@H](Cc2ccccc2)NC(=O)[C@H](Cc2ccccc2)NC(=O)[C@H](CC(N)=O)NC(=O)[C@H](CCCCN)NC1=O` [SRIF-14], the IC50 in experiment [1] was determined as 0.17 ± 0.054 nM.

As for `C[C@@H](O)[C@H](NC(=O)[C@@H]1CSSC[C@H](NC(=O)[C@@H](N)Cc2ccc(O)cc2)C(=O)N[C@@H](Cc2ccccc2)C(=O)N[C@H](Cc2c[nH]c3ccccc23)C(=O)N[C@@H](CCCCN)C(=O)N(C)[C@@H]([C@@H](C)O)C(=O)N1)C(N)=O` [Example 15, Tyr-cyclo(Cys-Phe-DTrp-Lys-NMeThr-Cys)-Thr-NH2] (H-YCF[dW]K[NMeT]CT-NH2; disulfide 2-7; N-terminus assumed), the Kd on hSSTR-1 is 1000 nM; at hSSTR-2, 61.3 ± 6.95 nM; on hSSTR-3, 440 ± 126 nM; at hSSTR-4, at least 1000 nM; at hSSTR-5, 92.79 ± 0.7 nM.

On to `C[C@@H](O)[C@H](NC(=O)[C@@H]1CSSC[C@H](NC(=O)[C@H](N)Cc2ccccc2)C(=O)N[C@@H](Cc2ccccc2)C(=O)N[C@H](Cc2c[nH]c3ccccc23)C(=O)N[C@@H](CCCCN)C(=O)N(C)[C@@H]([C@@H](C)O)C(=O)N1)C(N)=O` [Example 6, DPhe-cyclo(Cys-Phe-DTrp-Lys-NMeThr-Cys)-Thr-NH2], for which the Kd on hSSTR-1, at hSSTR-2, at hSSTR-3, at hSSTR-4 and on hSSTR-5 was above 1000 nM in each case.

With `C[C@@H](O)[C@H](NC(=O)[C@@H]1CSSC[C@H](NC(=O)[C@H](N)Cc2ccccc2)C(=O)N[C@@H](Cc2ccccc2)C(=O)N(C)[C@H](Cc2c[nH]c3ccccc23)C(=O)N[C@@H](CCCCN)C(=O)N[C@@H]([C@@H](C)O)C(=O)N1)C(N)=O` [Example 4, DPhe-cyclo(Cys-Phe-NMeDTrp-Lys-Thr-Cys)-Thr-NH2], the Kd was 1200 nM on hSSTR-1, above 1000 nM on hSSTR-4 and 0.61 ± 0.36 nM at hSSTR-5.

For `C[C@@H](O)[C@H](NC(=O)[C@@H]1CSSC[C@H](NC(=O)[C@H](N)Cc2ccccc2)C(=O)N[C@@H](Cc2ccccc2)C(=O)N[C@H](Cc2c[nH]c3ccccc23)C(=O)N[C@@H](CCCCN)C(=O)N[C@@H]([C@@H](C)O)C(=O)N1C)C(N)=O` [Example 7, DPhe-cyclo(Cys-Phe-DTrp-Lys-Thr-NMeCys)-Thr-NH2], the Kd at hSSTR-1 came out at 622 ± 172 nM; at hSSTR-2, 56.2 ± 26.4 nM; on hSSTR-4 it was 574 nM; on hSSTR-5 it was 28.4 ± 19.3 nM.

With SRIF-28, the IC50 in experiment [1] is 0.23 ± 0.052 nM.

For the compound `CN[C@H](Cc1ccccc1)C(=O)N[C@H]1CSSC[C@@H](C(=O)N[C@H](C(N)=O)[C@@H](C)O)NC(=O)[C@H]([C@@H](C)O)NC(=O)[C@H](CCCCN)NC(=O)[C@@H](Cc2c[nH]c3ccccc23)NC(=O)[C@H](Cc2ccccc2)NC1=O` [Example 1, NMeDPhe-cyclo(Cys-Phe-DTrp-Lys-Thr-Cys)-Thr-NH2], the Kd at hSSTR-1 was 316 ± 11 nM; at hSSTR-2, 1.03 ± 0.26 nM; at hSSTR-3, 17.9 ± 2.5 nM; on hSSTR-5, 4.89 ± 1.4 nM.
